Values quoted from earlier work in PMC12333940, “A prometabolite strategy inhibits cardiometabolic disease in an ApoE^–/– murine model of atherosclerosis” (JCI Insight, 2025).

Set-up: method as in printed
Conditions: oral administration of exogenous butyrate; background statement, ref not given; cited from earlier work

CCCC(=O)O [butyrate, Butyrate]
absorption into circulation, plasma concentration: 3 to 4 mM
